The subject of series [1] is tobacco mosaic virus (TMV). Put plainly: Anti-TMV in vitro effect (half-leaf soaking). Format: cell-based, tobacco mosaic virus (host Nicotiana tabacum L.cv.Xanthi NN). Conditions: for inhibition at 100 µg/mL / inhibition at 500 µg/mL: Tobacco mosaic virus, read-out: Relative inhibition rate (%) In vitro activity.
Series [2] has as its system tobacco mosaic virus (TMV). Nature of the series: Anti-TMV in vivo inactivation. Set-up: species or system tobacco mosaic virus (host Nicotiana tabacum L.cv.Xanthi NN). Conditions: for inhibition at 100 µg/mL / inhibition at 500 µg/mL: Tobacco mosaic virus, read-out: Relative inhibition rate (%) In vivo inactivation.
The subject of series [3] is tobacco mosaic virus (TMV). Nature of the series: Anti-TMV in vivo therapeutic effect. Also on record: species or system tobacco mosaic virus (host Nicotiana tabacum L.cv.Xanthi NN). Conditions: for inhibition at 100 µg/mL / inhibition at 500 µg/mL: Tobacco mosaic virus, read-out: Relative inhibition rate (%) In vivo therapy.
For series [4], the system named is tobacco mosaic virus (TMV). Nature of the series: Anti-TMV in vivo protective effect. Also on record: species or system tobacco mosaic virus (host Nicotiana tabacum L.cv.Xanthi NN). Conditions: for inhibition at 100 µg/mL / inhibition at 500 µg/mL: Tobacco mosaic virus, read-out: Relative inhibition rate (%) In vivo protection.
Series [5] concerns armyworms. Format: in vivo. Conditions: concentration 600 mg/kg.
Series [6] deals with cotton bollworms. Nature of the series: whole plant or invertebrate. Conditions: for mortality at 600 mg/kg: Helicoverpa armigera, in Gossypium hirsutum, read-out: Cotton bollworm Mortality (%). The method, then: Experimental method of cotton bollworms: feed and drug mixing method: measure 3 mL of prepared solution and add it to about 27 g of newly prepared feed, thereby obtaining needed concentration through dilution by 10 times.

Series [7] relates to mosquito larvae. Nature of the series: whole plant or invertebrate. Conditions: 24 h; for mortality at 10 mg/kg: Culex pipiens, read-out: Mosquito larvae Mortality (%). Put shortly: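 Early fourth-instar Culex pipiens pallens larvae from an indoor colony, 10 per beaker, exposed to test compound at 5 ppm in water, diluted from a 1000 ppm acetone mother solution. Blank: water containing 0.5 mL test solvent.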

Series [8] has as its system corn borers. Put plainly: whole plant or invertebrate. Conditions: read-out: Corn borer Mortality (%).
Series [9] has as its system cucumber fusarium wilt. Nature of the series: Fungicidal (bactericidal) activity in vitro, PDA colony diameter. Format: cell-based. Conditions: 50 mg/kg; for inhibition of growth at 50 mg/kg: Fusarium, 96 h.
Series [10] concerns Cercospora arachidicola. Described as above. The class given is cell-based. Conditions: 50 mg/kg; for inhibition of growth at 50 mg/kg: Mycosphaerella arachidis, 96 h.
Series [11] deals with Macrophoma kawatsukai. Described as above. Format: cell-based. Conditions: 50 mg/kg.
In series [12] the test system is Alternaria solani. The series is described as above. Format: cell-based. Conditions: 50 mg/kg; for inhibition of growth at 50 mg/kg: Alternaria solani, 96 h.
The test system of series [13] is Fusarium graminearumt. Put plainly: microbe, parasite or virus in culture. The class given is cell-based. Conditions: for inhibition of growth at 50 mg/kg: Fusarium, 96 h, read-out: Bactericidal activity (%) Fusarium graminearumt.
Series [14] relates to potato late blight. Nature of the series: microbe, parasite or virus in culture. Format: cell-based. Conditions: for inhibition of growth at 50 mg/kg: Phytophthora infestans, 96 h, read-out: Bactericidal activity (%) potato late blight.
The test system of series [15] is Sclerotinia scleotiorum. Nature of the series: Fungicidal (bactericidal) activity in vitro, PDA colony diameter. Format: cell-based. Conditions: 50 mg/kg; for inhibition of growth at 50 mg/kg: Sclerotinia, 96 h.
In series [16] the test system is Botrytis cinerea. The series is described as above. The class given is cell-based. Conditions: 50 mg/kg; for inhibition of growth at 50 mg/kg: Botrytis cinerea, 96 h.
Series [17] relates to Rhizoctonia solani. Described as above. Conditions: 50 mg/kg; for inhibition of growth at 50 mg/kg: Rhizoctonia solani, 96 h. The class given is cell-based.
For series [18], the system named is Phytophthora capsici. The series is described as above. Format: cell-based. Conditions: 50 mg/kg; for inhibition of growth at 50 mg/kg: Phytophthora capsici, 96 h.
Series [19] has as its system Fusarium fujikuroi. The description is as above. Conditions: 50 mg/kg; for inhibition of growth at 50 mg/kg: Fusarium fujikuroi, 96 h. Format: cell-based.
Series [20] concerns Rhizoctonia cereali. Described as above. The class given is cell-based. Conditions: 50 mg/kg; for inhibition of growth at 50 mg/kg: Rhizoctonia, 96 h.
In series [21] the test system is Bipolaria maydis. Nature of the series: organism not typed. The class given is cell-based. Conditions: for inhibition at 50 mg/kg: read-out: Bactericidal activity (%) Bipolaria maydis.
For series [22], the system named is Colletotrichum orbiculare. Put plainly: Fungicidal (bactericidal) activity in vitro, PDA colony diameter. Format: cell-based. Conditions: 50 mg/kg; for inhibition of growth at 50 mg/kg: Colletotrichum orbiculare, 96 h.
For series [23], the system named is corn borers. Conditions: concentration 600 mg/kg.

On to `COc1ccc2c3c([nH]c2c1)C(C)NCC3` (centres unmarked) [Tetrahydroharmine], for which the inhibition at 100 µg/mL in series [1] (treatment dose 100 μg/mL) was found to be 28.7%; in series [2] (treatment dose 100 μg/mL), 26.4%; in [3] (treatment dose 100 μg/mL) it was 27.3%; in [4] (treatment dose 100 μg/mL), 24.2%. For the same compound, the inhibition at 500 µg/mL in series [1] (treatment dose 500 μg/mL) was 58.2%; in [2] (treatment dose 500 μg/mL) it was 59.8%; in [3] (treatment dose 500 μg/mL) it was 55.5%; in [4] (treatment dose 500 μg/mL), 54.6%. In series [5], the “Armyworm Mortality (%)” value turned out to be 0%. For the same compound, the mortality (commonly the share of the test organisms that died) at 600 mg/kg in [6] was 10%; in series [8], 0%. In addition, in [7], the mortality at 10 mg/kg came to 15%.
`C[C@H]1N[C@@H](C(=O)O)Cc2c1[nH]c1ccccc21` [Ib-2, (1R,3R)-1-methyl-2,3,4,9-tetrahydropyridino [3,4-b] indol-3-formic acid]: the inhibition at 100 µg/mL in series [1] (treatment dose 100 μg/mL), in [2] (treatment dose 100 μg/mL), in [3] (treatment dose 100 μg/mL) and in [4] (treatment dose 100 μg/mL) was 0% in each case. Besides, the inhibition at 500 µg/mL in [1] (treatment dose 500 μg/mL) worked out at 25%; in [2] (treatment dose 500 μg/mL), 28.6%; in series [3] (treatment dose 500 μg/mL) it was 31.5%; in series [4] (treatment dose 500 μg/mL) it was 29.7%. The inhibition of growth at 50 mg/kg came to 23.1% in series [9]; 61.5% in series [10]; 0% in [12]; 21.4% in [13]; 4.6% in series [14]; 23.5% in [15]. For the same compound, the inhibition of growth at 50 mg/kg in [16] came to 18.2%; in [17], 29%; in [18] it was 15.6%; in series [19], 0%; in [20], 31.6%; in [22], 25%. The inhibition at 50 mg/kg was 23.8% in series [11] and 9.1% in series [21]. The “Armyworm Mortality (%)” value in series [5] amounted to 10%. For the same compound, the mortality at 600 mg/kg came to 25% in series [6] and 10% in [8]. The mortality at 10 mg/kg in series [7] came out at 30%.
`C[C@@H]1N[C@H](C(=O)NCN(C)C)Cc2c1[nH]c1ccccc21` [Ib-19, (1S, 3S)—N-((dimethylamino)methyl)-1-methyl-2,3,4,9-tetrahydro-pyridino [3,4-b] indol-3-formamide]: the inhibition at 100 µg/mL in series [1] (treatment dose 100 μg/mL), in series [2] (treatment dose 100 μg/mL), in [3] (treatment dose 100 μg/mL) and in series [4] (treatment dose 100 μg/mL) was 0% each time. For the same compound, the inhibition at 500 µg/mL turned out to be 26.6% in series [1] (treatment dose 500 μg/mL), 18.5% in series [2] (treatment dose 500 μg/mL), 20.9% in [3] (treatment dose 500 μg/mL) and 24.7% in series [4] (treatment dose 500 μg/mL). Besides, the inhibition of growth at 50 mg/kg is 19.2% in series [9]; 41.2% in series [10]; 25% in series [12]; 27.6% in [13]; 20% in series [14]; 35.3% in series [15]. In addition, the inhibition of growth at 50 mg/kg turned out to be 27.3% in series [16]; 26.3% in [17]; 7.9% in series [18]; 21.4% in series [19]; 47.1% in series [20]; 25.9% in [22]. Further, the inhibition at 50 mg/kg in [11] stood at 55.6%; in series [21], 24%. Besides, the “Armyworm Mortality (%)” value in series [5] is recorded as 5%. The mortality at 600 mg/kg came to 60% in series [6] and 10% in [8]. For the same compound, the mortality at 10 mg/kg in [7] was 20%.
As to `Cc1nccc2c1[nH]c1c([N+](=O)[O-])cccc12` [Ia-4], the inhibition at 100 µg/mL in [1] (treatment dose 100 μg/mL) came to 0%; in series [2] (treatment dose 100 μg/mL), 10.5%; in [3] (treatment dose 100 μg/mL), 0%; in series [4] (treatment dose 100 μg/mL), 5.8%. In addition, the inhibition at 500 µg/mL in [1] (treatment dose 500 μg/mL) is 30%; in series [2] (treatment dose 500 μg/mL), 36.4%; in series [3] (treatment dose 500 μg/mL) it was 33.3%; in series [4] (treatment dose 500 μg/mL), 30.1%. Also, the inhibition of growth at 50 mg/kg was found to be 38.5% in series [9]; 53.9% in series [10]; 15.8% in series [12]; 42.9% in series [13]; 27.3% in series [14]; 29.4% in [15]. The inhibition of growth at 50 mg/kg in [16] was found to be 18.2%; in series [17], 42.1%; in [18] it was 9.4%; in series [19] it was 21.4%; in series [20], 50%; in series [22], 42.9%. For the same compound, the inhibition at 50 mg/kg in series [11] amounted to 35.7%; in [21], 36.4%. For the same compound, the “Armyworm Mortality (%)” value in [5] is 10%. Further, the figures for the mortality at 600 mg/kg in series [6] and in [8] were 10% and 5%, respectively. The mortality at 10 mg/kg in series [7] worked out at 30%.
For the compound `C[C@@H]1N[C@H](C(=O)NN=CC(C)(C)C)Cc2c1[nH]c1ccccc21` [Ic-26, (1S, 3S)—N′-(2,2-dimethylpropylidene)-1-methyl-2,3,4,9-tetrahydropyridino [3,4-b] indol-3-formylhydrazine], the “Relative inhibition rate (%) In vitro activity” value in [1] (treatment dose 100 μg/mL) was determined as 27.5%; in [1] (treatment dose 500 μg/mL) it was 64.4%. Moreover, the “Relative inhibition rate (%) In vivo inactivation” value in series [2] (treatment dose 100 μg/mL) turned out to be 28.9%; in series [2] (treatment dose 500 μg/mL), 63.7%. Besides, the “Relative inhibition rate (%) In vivo therapy” value in [3] (treatment dose 100 μg/mL) stood at 36.8%; in [3] (treatment dose 500 μg/mL), 68.2%. The “Relative inhibition rate (%) In vivo protection” value in series [4] (treatment dose 100 μg/mL) turned out to be 33.4%; in series [4] (treatment dose 500 μg/mL) it was 66.8%. Further, in series [9], the “Bactericidal activity (%) Cucumber fusarium wilt” value stood at 4.5%. In addition, the “Bactericidal activity (%) Cercospora arachidicola” value in series [10] is on record as 18.2%. The “Bactericidal activity (%) Macrophoma kawatsukai” value in series [11] was 36.4%. Further, the “Bactericidal activity (%) Alternaria solani” value in series [12] was 19.0%. The “Bactericidal activity (%) Fusarium graminearumt” value in series [13] (50 mg/kg) is on record as 46.2%. Also, the “Bactericidal activity (%) potato late blight” value in series [14] is reported as 17.4%. Moreover, in series [15], the “Bactericidal activity (%) Sclerotinia scleotiorum” value worked out at 15.4%. Also, in [16], the “Bactericidal activity (%) Botrytis cinerea” value worked out at 36.1%. For the same compound, in [17], the “Bactericidal activity (%) Rhizoctonia solani” value is reported as 8.3%. Besides, the “Bactericidal activity (%) Phytophthora capsici” value in [18] came out at 12.1%. In series [19], the “Bactericidal activity (%) Fusarium fujikuroi” value is 29.4%. Moreover, the “Bactericidal activity (%) Rhizoctonia cereali” value in series [20] is given as 48.6%. Moreover, the “Bactericidal activity (%) Bipolaria maydis” value in series [21] (50 mg/kg) is 20.0%. Also, the “Bactericidal activity (%) Colletotrichum orbiculare” value in series [22] is given as 24.0%. Further, in series [5], the “Armyworm Mortality (%)” value is 25%. Further, the “Cotton bollworm Mortality (%)” value in series [6] (concentration 600 mg/kg) is recorded as 20%. Moreover, the “Mosquito larvae Mortality (%)” value in series [7] (concentration 10 mg/kg) amounted to 55%. Also, the “Corn borer Mortality (%)” value in series [23] is listed as 30%.
